Where two headings read alike, the source gives them in different places.
Assays:
human BACE2 (1-460):Fc = molecular target: T1, human BACE2 (1-460):Fc (Homo sapiens, UniProt Q9Y5Z0); assay: BACE2 TMEM27 FRET Assay; type: biochemical
T1 construct: made in house; host or cells: HEK293 (transient transfection, purified from conditioned media by Protein A)
T1 sequence (Q9Y5Z0 21-460): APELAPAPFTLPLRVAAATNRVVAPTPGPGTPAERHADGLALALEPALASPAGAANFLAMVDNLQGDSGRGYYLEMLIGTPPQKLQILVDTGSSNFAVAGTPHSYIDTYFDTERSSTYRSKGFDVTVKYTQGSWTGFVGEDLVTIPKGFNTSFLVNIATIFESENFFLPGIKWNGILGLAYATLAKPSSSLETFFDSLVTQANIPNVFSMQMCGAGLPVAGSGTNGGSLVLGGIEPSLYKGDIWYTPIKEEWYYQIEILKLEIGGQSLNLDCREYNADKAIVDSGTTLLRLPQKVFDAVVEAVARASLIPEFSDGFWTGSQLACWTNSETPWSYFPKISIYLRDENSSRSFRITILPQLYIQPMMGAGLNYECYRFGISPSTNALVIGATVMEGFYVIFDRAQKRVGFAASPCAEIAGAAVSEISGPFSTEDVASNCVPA
Experimental: (§1) To assess selectivity of BACE1 over BACE2, the test compound is evaluated in FRET assays using specific substrates for BACE1 and BACE2 as described below. For in vitro enzymatic and cellular assays, the test compound is prepared in DMSO to make up a 10 mM stock solution. The stock solution is serially diluted in DMSO to obtain a ten-point dilution curve with final compound concentrations ranging from 10 μM to 0.05 nM in a 96-well round-bottom plate before conducting the in vitro enzymatic and whole cell assays.
(§2) Human BACE1 (accession number: AF190725) and human BACE2 (accession number: AF 204944) are cloned from total brain cDNA by RT-PCR. The nucleotide sequences corresponding to amino acid sequences #1 to 460 are inserted into the cDNA encoding human IgG1 (Fc) polypeptide (Vassar et al., Science, 286, 735-742 (1999)). […]
(§3) Conditioned media of HEK293 cells transiently transfected with huBACE1:Fc or huBACE2:Fc cDNA are collected. […] The purity of the final product is assessed by electrophoresis in 4-20% Tris-Glycine SDS-PAGE. […]
Serial dilutions of test compound are prepared as described above. […] The RFU of the mixture at time 0 is recorded at excitation wavelength 430 nm and emission wavelength 535 nm. […] The RFU at the end of incubation is recorded with the same excitation and emission settings used at time 0. […]

Human BACE1(1-460):Fc = molecular target: T2, Human BACE1(1-460):Fc (Homo sapiens, UniProt P56817); assay: BACE1 FRET Assay; type: biochemical; details: purified recombinant huBACE1:Fc, pH 4.6, mean ± standard deviation of the mean, n=13
T2 construct: made in house; host or cells: HEK293 (transient transfection, purified from conditioned media by Protein A)
T2 sequence (P56817 22-460): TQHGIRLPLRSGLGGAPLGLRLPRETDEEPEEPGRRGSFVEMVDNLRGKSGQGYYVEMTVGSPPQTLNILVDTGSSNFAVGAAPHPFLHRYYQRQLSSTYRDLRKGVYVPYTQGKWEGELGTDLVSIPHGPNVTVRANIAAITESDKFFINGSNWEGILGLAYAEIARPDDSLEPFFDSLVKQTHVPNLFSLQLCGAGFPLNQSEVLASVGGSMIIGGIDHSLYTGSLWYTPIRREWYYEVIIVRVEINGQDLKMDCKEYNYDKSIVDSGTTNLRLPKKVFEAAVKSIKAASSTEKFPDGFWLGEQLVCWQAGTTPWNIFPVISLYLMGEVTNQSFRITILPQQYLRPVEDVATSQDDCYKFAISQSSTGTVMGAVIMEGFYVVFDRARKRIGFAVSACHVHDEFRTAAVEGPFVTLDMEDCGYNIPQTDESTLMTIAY
Experimental: as §1, §2, §3
Serial dilutions of the test compound are prepared as described above. […] The RFU of the mixture at time 0 is recorded at excitation wavelength 355 nm and emission wavelength 460 nm, after brief mixing on a plate shaker. […] The RFU at the end of incubation is recorded with the same excitation and emission settings used at time 0. […]

BACE1 = molecular target: T3, BACE1 (Homo sapiens, UniProt P56817); assay: SH-SY5YAPP695Wt Whole Cell Assay; type: cell-based; details: SH-SY5Y cells expressing human APP695Wt, 24 hours, conditioned media, mean ± standard deviation of the mean, n=3
T3 construct: endogenous in cells; host or cells: SH-SY5Y (ATCC CRL2266) stably expressing human APP695Wt
T3 sequence (P56817 46-501): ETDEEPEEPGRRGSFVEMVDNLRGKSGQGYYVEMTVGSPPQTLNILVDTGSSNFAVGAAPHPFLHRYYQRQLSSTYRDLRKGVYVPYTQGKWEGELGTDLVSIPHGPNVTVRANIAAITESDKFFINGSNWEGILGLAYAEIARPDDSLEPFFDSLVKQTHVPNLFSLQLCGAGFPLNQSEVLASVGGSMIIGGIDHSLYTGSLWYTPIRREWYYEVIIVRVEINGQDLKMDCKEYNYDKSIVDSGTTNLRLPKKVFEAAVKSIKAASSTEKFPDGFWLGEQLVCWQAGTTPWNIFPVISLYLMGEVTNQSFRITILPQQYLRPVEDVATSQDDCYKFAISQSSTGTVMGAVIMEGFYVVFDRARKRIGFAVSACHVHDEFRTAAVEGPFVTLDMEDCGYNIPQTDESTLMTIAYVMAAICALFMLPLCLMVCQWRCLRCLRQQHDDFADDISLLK
Experimental: as §1
The routine whole cell assay for the measurement of inhibition of BACE1 activity utilizes the human neuroblastoma cell line SH-SY5Y (ATCC Accession No. CRL2266) stably expressing a human APP695Wt cDNA. Cells are routinely used up to passage number 6 and then discarded.
SH-SY5YAPP695Wt cells are plated in 96 well tissue culture plates at 5.0×10^4 cells/well in 200 μL culture media (50% MEM/EBSS and Ham's F12, 1× each sodium pyruvate, non-essential amino acids and NaHCO3 containing 10% FBS). The following day, media is removed from the cells, fresh media added then incubated at 37° C. for 24 hours in the presenceabsence of test compound at the desired concentration range.
At the end of the incubation, conditioned media are analyzed for evidence of beta-secretase activity by analysis of Abeta peptides 1-40 and 1-42 by specific sandwich ELISAs. […]

C[C@@]1(c2cc(NC(=O)c3nc4ccc(C#N)nc4s3)ccc2F)CO[C@@](C)(C(F)(F)F)C(N)=N1 [Example 1, N-[3-[(3R,6R)-5-Amino-3,6-dimethyl-6-(trifluoromethyl)-2H-1,4-oxazin-3-yl]-4-fluoro-phenyl]-5-cyano-thiazolo[5,4-b]pyridine-2-carboxamide]
IC50 (human BACE2 (1-460):Fc; TMEM27 LucY FRET assay, huBACE2:Fc, pH 4.6, mean ± standard deviation of the mean, n=6): 446 nM | ratio of BACE1 (FRET IC50 enzyme assay) to BACE2 (TMEM27 LucY FRET assay) (human BACE2 (1-460):Fc; selectivity for BACE1 over BACE2): approximately 50 fold | IC50 (Human BACE1(1-460):Fc): 8.18 nM | IC50 (BACE1; read-out: IC50 for SH-SY5YAPP695Wt A-beta (1-40) ELISA): 1.88 nM | IC50 (BACE1; read-out: IC50 for SH-SY5YAPP695Wt A-beta (1-42) ELISA): 3.55 nM

Source: patent US10399995B2, “1,4-Oxazines useful as selective BACE1 inhibitors” (Eli Lilly and Company, priority 2016, dated 2019)
